Results: US20140308317A1, “Polymeric Compounds And Methods Of Making And Using The Same” (CELLCEUTIX CORPORATION, priority 2012, published 2014)
≈ marks a conversion by molar mass, not a printed value.

What was measured:
[1] = tested on: E. Coli ATCC 25922; test: Minimum Inhibitory Concentration (MIC), modified microbroth dilution; type: cell-based; settings: Escherichia coli, ATCC25922; E. coli (25922); overnight incubation (18 hours); read-out: MIC50 E. coli
[2] = tested on: Staphylococcus aureus ATCC 27660; test: as above; type: cell-based; settings: Staphylococcus aureus, ATCC27660; S. aureus (27660); overnight incubation (18 hours); read-out: MIC50 S. aureus
[3] = tested on: Enterococcus faecalis ATCC 29212; test: as above; type: cell-based; settings: Enterococcus faecalis, ATCC29212; E. faecalis (29212); overnight incubation (18 hours); read-out: MIC50 E. faecalis
[4] = tested on: Pseudomonas aeruginosa ATCC 10145; test: as above; type: cell-based; settings: Pseudomonas aeruginosa, ATCC10145; P. aeruginosa (10145); overnight incubation (18 hours); read-out: MIC50 P. Aeruginosa
[5] = tested on: Klebsiella pneumoniae ATCC 13883; test: as above; type: cell-based; settings: Klebsiella pneumoniae, ATCC13883; K. pneumoniae (13883); overnight incubation (18 hours); read-out: MIC50 K. Pnuemnoiae
[6] = Cytotoxicity colorimetric (tetrazolium) assay; type: cell-based, mouse; settings: mouse, NIH/3T3 cells (CRL-1658), NIH/3T3 cells; one hour with compound in serum-free media
Protocol: (§1) Cytotoxicity of the compounds was evaluated in a colorimetric assay using a transformed human liver cell line (HepG2, HB-8065) and an embryonic mouse cell line (NIH/3T3 cells, CRL-1658). This assay measures the bioreduction of a novel tetrazolium compound to a soluble formazan product by viable cells. HepG2 cells were seeded in 96 well plates at 2×10^4 cells/well in MEM medium with 10% fetal bovine serum (FBS) 24 hours prior to use. NIH/3T3 cells were seeded in 96 well plates at 2×10^4 cells/well in DMEM medium with 10% bovine calf serum (BCS) 24 hours prior to use. Cell monolayers were rinsed in serum-free media and incubated for one hour with compounds in serum-free media. After incubation, the media is replaced with serum supplemented media and live cells were measured using the Cell Titer 96 Aqueous […] Assay kit (Promega, Madison, Wis.). EC50 values were determined using a four parameter logistic equation: Y=Bottom+(Top-Bottom)/(1+10̂((LogEC50−X)*HillSlope)).
(§2) Actual results from a representative cytotoxicity assay are shown below in Table 2. Data is expressed as EC50 in μg/mL.

[7] = Cytotoxicity colorimetric (tetrazolium) assay; type: cell-based, human; settings: human, HepG2 cells (HB-8065), HepG2 cells; one hour with compound in serum-free media
Protocol: as §1, §2

Which results are given for `N=C(N)NCCc1cc(CCNC(=N)N)cc(-c2cccc(-c3cc(CCNC(=N)N)cc(CCNC(=N)N)c3)c2)c1` [Compound 116]?
MIC50 [1]: 6.25 µg/mL (≈ 11 µM); MIC50 [2]: 6.25 µg/mL (≈ 11 µM); MIC50 [3]: 25 µg/mL (≈ 43.8 µM); MIC50 [4]: 25 µg/mL (≈ 43.8 µM); MIC50 [5]: 25 µg/mL (≈ 43.8 µM); EC50 at 1 h [6]: 676 µg/mL (≈ 1180 µM); EC50 at 1 h [7]: 974 µg/mL (≈ 1710 µM)

For `NCCc1cccc(-c2cc(-c3cccc(-c4cc(-c5cccc(CCN)c5)on4)c3)no2)c1` [Compound 128], which MIC50 [1] is on record?
Its MIC50 is 12.5 µg/mL (≈ 27.7 µM).

What about the MIC50 [2] of the same compound?
Its MIC50 is 1.56 µg/mL (≈ 3.46 µM).

And the MIC50 [3]?
The MIC50 was 1.56 µg/mL (≈ 3.46 µM).

What about the MIC50 [4] of the same compound?
Its MIC50 is 25 µg/mL (≈ 55.5 µM).

What about the MIC50 [5] of the same compound?
The MIC50 was 25 µg/mL (≈ 55.5 µM).

What about the EC50 at 1 h [6] of the same compound?
The EC50 at 1 h was 22.3 µg/mL (≈ 49.5 µM).

What about the EC50 at 1 h [7] of the same compound?
Its EC50 at 1 h is 47 µg/mL (≈ 104 µM).

Which MIC50 [1] does the source give for `N=C(N)NCCc1cccc(-c2cc(-c3cccc(-c4cc(-c5cccc(CCNC(=N)N)c5)on4)c3)no2)c1` [Compound 129] here?
The MIC50 was 25 µg/mL (≈ 46.8 µM).

And the MIC50 [2]?
Its MIC50 is 0.78 µg/mL (≈ 1.46 µM).

What about the MIC50 [3] of the same compound?
Its MIC50 is 3.13 µg/mL (≈ 5.85 µM).

And the MIC50 [4]?
Its MIC50 is 25 µg/mL (≈ 46.8 µM).

What about the MIC50 [5] of the same compound?
Its MIC50 is 12.5 to 25 µg/mL (≈ 23.4 to 46.8 µM).

And the EC50 at 1 h [6]?
The EC50 at 1 h was 35.8 µg/mL (≈ 66.9 µM).

What about the EC50 at 1 h [7] of the same compound?
Its EC50 at 1 h is 57 µg/mL (≈ 107 µM).

What does the source list for `NCCc1cccc(-c2coc(-c3cccc(-c4nc(-c5cccc(CCN)c5)co4)c3)n2)c1` [Compound 132]?
MIC50 [1]: 12.5 µg/mL (≈ 27.7 µM); MIC50 [2]: 12.5 µg/mL (≈ 27.7 µM); MIC50 [3]: 12.5 µg/mL (≈ 27.7 µM); MIC50 [4]: 25 µg/mL (≈ 55.5 µM); MIC50 [5]: 25 µg/mL (≈ 55.5 µM); EC50 at 1 h [6]: 23.5 µg/mL (≈ 52.1 µM); EC50 at 1 h [7]: 50.1 µg/mL (≈ 111 µM)

Which MIC50 [1] does the source give for `NCCc1cccc(-c2coc(-c3cccc(-c4ncco4)c3)n2)c1` [Compound 133] here?
The MIC50 was > 50 µg/mL.

What about the MIC50 [2] of the same compound?
The MIC50 was 50 µg/mL (≈ 151 µM).

What about the MIC50 [3] of the same compound?
Its MIC50 is 25 µg/mL (≈ 75.4 µM).

What about the MIC50 [4] of the same compound?
The MIC50 was > 50 µg/mL.

What about the MIC50 [5] of the same compound?
The MIC50 was > 50 µg/mL.

What about the EC50 at 1 h [6] of the same compound?
The EC50 at 1 h was 70.2 µg/mL (≈ 212 µM).

What about the EC50 at 1 h [7] of the same compound?
Its EC50 at 1 h is 130 µg/mL (≈ 392 µM).

What does the source list for `N=C(N)NCCc1cccc(-c2coc(-c3cccc(-c4nc(-c5cccc(CCNC(=N)N)c5)co4)c3)n2)c1` [Compound 134]?
MIC50 [1]: 12.5 µg/mL (≈ 23.4 µM); MIC50 [2]: 0.78 µg/mL (≈ 1.46 µM); MIC50 [3]: 12.5 µg/mL (≈ 23.4 µM); MIC50 [4]: 25 µg/mL (≈ 46.8 µM); MIC50 [5]: 50 µg/mL (≈ 93.5 µM); EC50 at 1 h [6]: 33.4 µg/mL (≈ 62.5 µM); EC50 at 1 h [7]: 70.9 µg/mL (≈ 133 µM)

With `NCCc1cc(CCN)cc(-c2csc(-c3cccc(-c4nc(-c5cc(CCN)cc(CCN)c5)cs4)c3)n2)c1` [Compound 135] as the compound, how does the MIC50 [1] read?
The MIC50 was 50 µg/mL (≈ 87.9 µM).

And the MIC50 [2]?
Its MIC50 is 6.25 µg/mL (≈ 11 µM).

And the MIC50 [3]?
Its MIC50 is > 50 µg/mL.

And the MIC50 [4]?
Its MIC50 is 25 µg/mL (≈ 44 µM).

What about the MIC50 [5] of the same compound?
The MIC50 was > 50 µg/mL.

And the EC50 at 1 h [6]?
Its EC50 at 1 h is 34.5 µg/mL (≈ 60.6 µM).

What about the EC50 at 1 h [7] of the same compound?
The EC50 at 1 h was 134 µg/mL (≈ 236 µM).

Which MIC50 [1] does the source give for `NCCc1cc(CCN)cc(-c2csc(-c3cccc(-c4nccs4)c3)n2)c1` [Compound 136] here?
The MIC50 was > 50 µg/mL.

And the MIC50 [2]?
The MIC50 was 25 µg/mL (≈ 61.5 µM).

And the MIC50 [3]?
Its MIC50 is 50 µg/mL (≈ 123 µM).

What about the MIC50 [4] of the same compound?
Its MIC50 is 50 µg/mL (≈ 123 µM).

What about the MIC50 [5] of the same compound?
Its MIC50 is 50 µg/mL (≈ 123 µM).

And the EC50 at 1 h [6]?
The EC50 at 1 h was 250 µg/mL (≈ 615 µM).

And the EC50 at 1 h [7]?
The EC50 at 1 h was 4.12 µg/mL (≈ 10.1 µM).

Which MIC50 [1] does the source give for `N=C(N)NCCc1cc(CCNC(=N)N)cc(-c2csc(-c3cccc(-c4nc(-c5cc(CCNC(=N)N)cc(CCNC(=N)N)c5)cs4)c3)n2)c1` [Compound 137] here?
The MIC50 was 12.5 µg/mL (≈ 17 µM).

And the MIC50 [2]?
Its MIC50 is 3.13 µg/mL (≈ 4.25 µM).

And the MIC50 [3]?
The MIC50 was 12.5 µg/mL (≈ 17 µM).

What about the MIC50 [4] of the same compound?
Its MIC50 is 12.5 µg/mL (≈ 17 µM).

What about the MIC50 [5] of the same compound?
Its MIC50 is > 50 µg/mL.

What about the EC50 at 1 h [6] of the same compound?
The EC50 at 1 h was 26.6 µg/mL (≈ 36.1 µM).

What about the EC50 at 1 h [7] of the same compound?
Its EC50 at 1 h is 55.6 µg/mL (≈ 75.4 µM).

Which MIC50 [1] does the source give for `NCCCOc1cc(OCCCN)cc(-c2cccc(-c3cccc(-c4cc(OCCCN)cc(OCCCN)c4)c3)c2)c1` [Compound 144] here?
The MIC50 was 3.13 µg/mL (≈ 5.23 µM).

What about the MIC50 [2] of the same compound?
The MIC50 was 0.195 µg/mL (≈ 0.326 µM).

And the MIC50 [3]?
The MIC50 was 6.25 µg/mL (≈ 10.4 µM).

What about the MIC50 [4] of the same compound?
The MIC50 was 6.25 µg/mL (≈ 10.4 µM).

What about the MIC50 [5] of the same compound?
The MIC50 was 6.25 µg/mL (≈ 10.4 µM).

What about the EC50 at 1 h [6] of the same compound?
Its EC50 at 1 h is 320 µg/mL (≈ 534 µM).

And the EC50 at 1 h [7]?
Its EC50 at 1 h is 448 µg/mL (≈ 748 µM).

Which results are given for `NCCCOc1cc(OCCCN)cc(-c2ccc3c(c2)C(=O)c2cccc(-c4cc(OCCCN)cc(OCCCN)c4)c2CC3)c1` [Compound 155]?
MIC50 [1]: > 50 µg/mL; MIC50 [2]: 1.56 µg/mL (≈ 2.39 µM); MIC50 [3]: > 50 µg/mL; MIC50 [4]: 25 µg/mL (≈ 38.3 µM); MIC50 [5]: > 50 µg/mL; EC50 at 1 h [6]: 177 µg/mL (≈ 271 µM); EC50 at 1 h [7]: 330 µg/mL (≈ 505 µM)

Which results are given for `N=C(N)NCCCc1cccc(-c2ccc3c4ccc(-c5cccc(CCCNC(=N)N)c5)cc4n(CCCNC(=N)N)c3c2)c1` [Compound 158]?
MIC50 [1]: 3.13 µg/mL (≈ 5.07 µM); MIC50 [2]: 1.56 µg/mL (≈ 2.53 µM); MIC50 [3]: 6.25 µg/mL (≈ 10.1 µM); MIC50 [4]: 25 µg/mL (≈ 40.5 µM); MIC50 [5]: 3.13 µg/mL (≈ 5.07 µM); EC50 at 1 h [6]: 131 µg/mL (≈ 212 µM); EC50 at 1 h [7]: 100 µg/mL (≈ 162 µM)

Which results are given for `NCCCn1c2cc(-c3cccc(N)c3)ccc2c2ccc(-c3cccc(N)c3)cc21` [Compound 159]?
MIC50 [1]: 12.5 µg/mL (≈ 30.7 µM); MIC50 [2]: 1.56 µg/mL (≈ 3.84 µM); MIC50 [3]: 12.5 µg/mL (≈ 30.7 µM); MIC50 [4]: 100 µg/mL (≈ 246 µM); MIC50 [5]: 12.5 µg/mL (≈ 30.7 µM); EC50 at 1 h [6]: 45.7 µg/mL (≈ 112 µM); EC50 at 1 h [7]: 64.7 µg/mL (≈ 159 µM)
